Data taken from ChEMBL document CHEMBL4732123, “Discovery of 7-aminophenanthridin-6-one as a new scaffold for matrix metalloproteinase inhibitors with multitarget neuroprotective activity” (Eur J Med Chem, 2021).
Activity calls are given as the source filed them. The calls are words filed in the database; no cut-off is given here.

What was measured:
[1] = system: SN-56; assay: Neuroprotective activity against H2O2-induced cytotoxicity in mouse SN-56 cells assessed as increase in cell viability at 10 to 100 uM incubated for 24 hrs by MTT assay; type: functional, cell-based; settings: dose 10-100 µM
[2] = Cytotoxicity against mouse SN-56 cells assessed as reduction in cell viability upto 100 uM incubated for 24 hrs by MTT assay; type: cell-based; settings: sn-56, 24 h
[3] = target: T1, Neutrophil collagenase (Homo sapiens, UniProt P22894); assay: Inhibition of recombinant human MMP8 (99 to 269 residues) using Mca-Pro-Leu-Gly-Leu-Dpa-Ala-Arg-NH2 expressed in Escherichia coli expression system as substrate incubated for 15 mins followed by substrate addition and measured after 2 to 4 hrs by fluorescence based assay
Target sequence in this assay (P22894 whole entry, the tested form may be a part): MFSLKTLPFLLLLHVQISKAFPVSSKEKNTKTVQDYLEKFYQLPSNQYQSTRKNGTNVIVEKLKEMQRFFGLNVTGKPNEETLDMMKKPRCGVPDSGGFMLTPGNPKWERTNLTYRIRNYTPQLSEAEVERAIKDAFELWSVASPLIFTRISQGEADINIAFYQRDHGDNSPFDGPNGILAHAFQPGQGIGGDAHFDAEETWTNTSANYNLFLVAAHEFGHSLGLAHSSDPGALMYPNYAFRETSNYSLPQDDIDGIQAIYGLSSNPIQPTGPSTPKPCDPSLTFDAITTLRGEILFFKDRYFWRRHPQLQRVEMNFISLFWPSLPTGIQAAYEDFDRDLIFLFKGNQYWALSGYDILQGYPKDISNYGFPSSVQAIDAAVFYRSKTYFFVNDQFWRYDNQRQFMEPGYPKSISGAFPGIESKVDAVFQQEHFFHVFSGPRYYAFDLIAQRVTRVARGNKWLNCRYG

[4] = target: T2, 72 kDa type IV collagenase (Homo sapiens, UniProt P08253); assay: Inhibition of recombinant human MMP2 (110 to 452 residues) using Mca-Pro-Leu-Gly-Leu-Dpa-Ala-Arg-NH2 expressed in yeast expression system as substrate incubated for 15 mins followed by substrate addition and measured after 2 to 4 hrs by fluorescence based assay
Target sequence in this assay (P08253 whole entry, the tested form may be a part): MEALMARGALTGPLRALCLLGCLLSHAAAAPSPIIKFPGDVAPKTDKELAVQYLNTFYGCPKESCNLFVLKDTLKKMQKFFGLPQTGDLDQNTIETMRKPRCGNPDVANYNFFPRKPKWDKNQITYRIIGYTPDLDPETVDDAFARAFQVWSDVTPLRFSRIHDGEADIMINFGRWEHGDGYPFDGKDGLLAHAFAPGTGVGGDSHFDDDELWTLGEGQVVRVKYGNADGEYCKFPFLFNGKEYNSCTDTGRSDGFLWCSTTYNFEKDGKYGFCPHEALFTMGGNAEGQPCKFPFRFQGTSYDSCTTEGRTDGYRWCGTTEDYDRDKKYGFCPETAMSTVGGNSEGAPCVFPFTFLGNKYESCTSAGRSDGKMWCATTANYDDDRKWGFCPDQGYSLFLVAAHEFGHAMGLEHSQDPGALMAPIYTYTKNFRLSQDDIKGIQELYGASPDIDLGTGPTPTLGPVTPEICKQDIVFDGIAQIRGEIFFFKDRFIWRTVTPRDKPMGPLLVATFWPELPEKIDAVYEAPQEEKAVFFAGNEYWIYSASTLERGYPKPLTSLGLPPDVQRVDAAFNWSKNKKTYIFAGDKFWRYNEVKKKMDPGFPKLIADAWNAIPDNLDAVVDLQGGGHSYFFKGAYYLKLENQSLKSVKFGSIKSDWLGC

[5] = Neuroprotective activity against H2O2-induced lipid peroxidation in mouse SN-56 cells assessed as increase in MDA level at 1 to 150 uM incubated for 24 hrs by lipid peroxidation MDA assay kit method relative to control; type: functional; settings: dose 1-150 µM
[6] = system: SN-56; assay: Neuroprotective activity against H2O2-induced lipid peroxidation in mouse SN-56 cells assessed as increase in MDA level incubated for 24 hrs by lipid peroxidation MDA assay kit method; type: functional, cell-based
[7] = target: T3, Collagenase 3 (Homo sapiens, UniProt P45452); assay: Inhibition of recombinant human MMP13 (104 to 274 residues) using Mca-Pro-Leu-Gly-Leu-Dpa-Ala-Arg-NH2 expressed in Escherichia coli expression system as substrate incubated for 15 mins followed by substrate addition and measured after 2 to 4 hrs by fluorescence based assay
[8] = target: T4, Matrix metalloproteinase-9 (Homo sapiens, UniProt P14780); assay: Inhibition of recombinant human MMP9 (107 to 449 residues) using Mca-Pro-Leu-Gly-Leu-Dpa-Ala-Arg-NH2 expressed in Escherichia coli expression system as substrate incubated for 15 mins followed by substrate addition and measured after 2 to 4 hrs by fluorescence based assay
T4 sequence (P14780 whole entry, the tested form may be a part): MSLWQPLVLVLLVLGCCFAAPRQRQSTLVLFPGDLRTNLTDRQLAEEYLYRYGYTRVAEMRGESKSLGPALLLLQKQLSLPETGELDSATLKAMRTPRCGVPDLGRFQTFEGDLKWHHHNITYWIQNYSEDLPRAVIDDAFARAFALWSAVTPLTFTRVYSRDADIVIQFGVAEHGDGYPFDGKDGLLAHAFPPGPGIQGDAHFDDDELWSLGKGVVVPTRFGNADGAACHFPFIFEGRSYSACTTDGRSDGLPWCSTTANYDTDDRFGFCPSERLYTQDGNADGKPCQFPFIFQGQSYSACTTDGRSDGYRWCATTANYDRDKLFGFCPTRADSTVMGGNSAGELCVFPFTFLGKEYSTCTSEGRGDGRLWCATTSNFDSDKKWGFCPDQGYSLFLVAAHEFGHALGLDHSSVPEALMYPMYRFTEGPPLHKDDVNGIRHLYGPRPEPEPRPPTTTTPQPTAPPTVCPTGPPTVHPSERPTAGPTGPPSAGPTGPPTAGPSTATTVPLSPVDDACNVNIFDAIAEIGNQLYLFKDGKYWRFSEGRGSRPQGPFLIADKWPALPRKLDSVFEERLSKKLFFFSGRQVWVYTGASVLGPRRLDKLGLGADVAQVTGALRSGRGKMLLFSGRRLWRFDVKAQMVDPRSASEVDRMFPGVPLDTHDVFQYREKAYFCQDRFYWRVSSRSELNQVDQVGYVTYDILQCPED

[9] = target: T3, Collagenase 3; assay: Non-competitive inhibition of recombinant human MMP13 (104 to 274 residues) using Mca-Pro-Leu-Gly-Leu-Dpa-Ala-Arg-NH2 expressed in Escherichia coli expression system as substrate at 100 uM incubated for 15 mins followed by substrate addition and measured after 2 to 4 hrs by fluorescence based assay relative to control; settings: time 2-4.25 hrs
[10] = target: T2, 72 kDa type IV collagenase; assay: Non-competitive inhibition of recombinant human MMP2 (110 to 452 residues) using Mca-Pro-Leu-Gly-Leu-Dpa-Ala-Arg-NH2 expressed in yeast expression system as substrate incubated for 15 mins followed by substrate addition and measured after 2 to 4 hrs by fluorescence based assay; settings: time 2-4.25 hrs
Target sequence in this assay (P08253 110-660 limits assumed): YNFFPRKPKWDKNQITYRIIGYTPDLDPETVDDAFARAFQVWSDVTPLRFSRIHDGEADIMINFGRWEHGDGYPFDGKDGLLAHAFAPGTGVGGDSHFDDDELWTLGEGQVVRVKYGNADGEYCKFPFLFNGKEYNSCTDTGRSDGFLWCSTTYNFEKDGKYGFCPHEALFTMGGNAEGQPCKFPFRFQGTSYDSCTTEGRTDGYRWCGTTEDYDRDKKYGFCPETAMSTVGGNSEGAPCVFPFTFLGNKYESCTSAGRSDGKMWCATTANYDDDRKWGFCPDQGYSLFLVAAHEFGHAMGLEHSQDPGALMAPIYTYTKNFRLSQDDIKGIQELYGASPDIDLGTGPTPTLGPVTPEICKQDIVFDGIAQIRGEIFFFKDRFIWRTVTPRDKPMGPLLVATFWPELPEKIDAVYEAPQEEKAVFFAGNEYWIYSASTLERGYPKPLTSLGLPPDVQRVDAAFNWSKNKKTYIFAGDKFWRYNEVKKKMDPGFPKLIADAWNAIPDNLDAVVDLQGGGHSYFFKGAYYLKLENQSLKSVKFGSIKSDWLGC

[11] = target: T3, Collagenase 3; assay: Non-competitive inhibition of recombinant human MMP13 (104 to 274 residues) using Mca-Pro-Leu-Gly-Leu-Dpa-Ala-Arg-NH2 expressed in Escherichia coli expression system as substrate by fluorescence based Dixon plot assay; settings: time 2-4 hrs
[12] = target: T4, Matrix metalloproteinase-9; assay: Non-competitive inhibition of recombinant human MMP9 (107 to 449 residues) using Mca-Pro-Leu-Gly-Leu-Dpa-Ala-Arg-NH2 expressed in Escherichia coli expression system as substrate by substrate by fluorescence based Lineweaver-Burk plot; settings: time 2-4 hrs
[13] = target: T2, 72 kDa type IV collagenase; assay: Non-competitive inhibition of recombinant human MMP2 (110 to 452 residues) using Mca-Pro-Leu-Gly-Leu-Dpa-Ala-Arg-NH2 expressed in yeast expression system as substrate by fluorescence based Lineweaver-Burk plot; settings: time 2-4 hrs
Target sequence in this assay (P08253 110-660 limits assumed): as above

[14] = target: T1, Neutrophil collagenase; assay: Non-competitive inhibition of recombinant human MMP8 (99 to 269 residues) using Mca-Pro-Leu-Gly-Leu-Dpa-Ala-Arg-NH2 expressed in Escherichia coli expression system as substrate by substrate by fluorescence based Dixon plot; settings: time 2-4 hrs
Target sequence in this assay (P22894 101-467 limits assumed): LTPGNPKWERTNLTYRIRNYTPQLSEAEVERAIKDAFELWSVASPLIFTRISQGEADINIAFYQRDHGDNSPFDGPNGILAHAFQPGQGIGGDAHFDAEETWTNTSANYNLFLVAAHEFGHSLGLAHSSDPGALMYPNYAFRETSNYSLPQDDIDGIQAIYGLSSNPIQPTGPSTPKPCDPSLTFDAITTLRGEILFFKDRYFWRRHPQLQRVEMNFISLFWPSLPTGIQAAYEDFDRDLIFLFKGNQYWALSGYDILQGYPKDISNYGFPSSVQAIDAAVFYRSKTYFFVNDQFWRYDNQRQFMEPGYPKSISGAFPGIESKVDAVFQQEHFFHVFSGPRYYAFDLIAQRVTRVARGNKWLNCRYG

[15] = target: T1, Neutrophil collagenase; assay: Non-competitive inhibition of recombinant human MMP8 (99 to 269 residues) using Mca-Pro-Leu-Gly-Leu-Dpa-Ala-Arg-NH2 expressed in Escherichia coli expression system as substrate incubated for 15 mins followed by substrate addition and measured after 2 to 4 hrs by fluorescence based assay; settings: time 2-4.25 hrs
Target sequence in this assay (P22894 101-467 limits assumed): as above

[16] = target: T3, Collagenase 3; assay: Non-competitive inhibition of recombinant human MMP13 (104 to 274 residues) using Mca-Pro-Leu-Gly-Leu-Dpa-Ala-Arg-NH2 expressed in Escherichia coli expression system as substrate by fluorescence based Lineweaver-Burk plot assay; settings: time 2-4 hrs
[17] = target: T4, Matrix metalloproteinase-9; assay: Non-competitive inhibition of recombinant human MMP9 (107 to 449 residues) using Mca-Pro-Leu-Gly-Leu-Dpa-Ala-Arg-NH2 expressed in Escherichia coli expression system as substrate by substrate by fluorescence based Dixon plot; settings: time 2-4 hrs
[18] = target: T2, 72 kDa type IV collagenase; assay: Non-competitive inhibition of recombinant human MMP2 (110 to 452 residues) using Mca-Pro-Leu-Gly-Leu-Dpa-Ala-Arg-NH2 expressed in yeast expression system as substrate by fluorescence based Dixon plot; settings: time 2-4 hrs
Target sequence in this assay (P08253 110-660 limits assumed): as the sequence (P08253 110-660 limits assumed) above

[19] = target: T1, Neutrophil collagenase; assay: Non-competitive inhibition of recombinant human MMP8 (99 to 269 residues) using Mca-Pro-Leu-Gly-Leu-Dpa-Ala-Arg-NH2 expressed in Escherichia coli expression system as substrate by substrate by fluorescence based Lineweaver-Burk plot; settings: time 2-4 hrs
Target sequence in this assay (P22894 101-467 limits assumed): as the sequence (P22894 101-467 limits assumed) above

[20] = target: T4, Matrix metalloproteinase-9; assay: Non-competitive inhibition of recombinant human MMP9 (107 to 449 residues) using Mca-Pro-Leu-Gly-Leu-Dpa-Ala-Arg-NH2 expressed in Escherichia coli expression system as substrate by substrate by fluorescence based Michaelis-Menten analysis; settings: time 2-4 hrs
[21] = target: T1, Neutrophil collagenase; assay: Non-competitive inhibition of recombinant human MMP8 (99 to 269 residues) using Mca-Pro-Leu-Gly-Leu-Dpa-Ala-Arg-NH2 expressed in Escherichia coli expression system as substrate by substrate by fluorescence based Michaelis-Menten analysis; settings: time 2-4 hrs
Target sequence in this assay (P22894 101-467 limits assumed): as above

[22] = target: T4, Matrix metalloproteinase-9; assay: Non-competitive inhibition of recombinant human MMP9 (107 to 449 residues) using Mca-Pro-Leu-Gly-Leu-Dpa-Ala-Arg-NH2 expressed in Escherichia coli expression system as substrate incubated for 15 mins followed by substrate addition and measured after 2 to 4 hrs by fluorescence based assay; settings: time 2-4.25 hrs
[23] = target: T3, Collagenase 3; assay: Non-competitive inhibition of recombinant human MMP13 (104 to 274 residues) using Mca-Pro-Leu-Gly-Leu-Dpa-Ala-Arg-NH2 expressed in Escherichia coli expression system as substrate incubated for 15 mins followed by substrate addition and measured after 2 to 4 hrs by fluorescence based assay; settings: time 2-4.25 hrs
[24] = target: T3, Collagenase 3; assay: Non-competitive inhibition of recombinant human MMP13 (104 to 274 residues) using Mca-Pro-Leu-Gly-Leu-Dpa-Ala-Arg-NH2 expressed in Escherichia coli expression system as substrate by fluorescence based Michaelis-Menten analysis assay; settings: time 2-4 hrs
[25] = target: T2, 72 kDa type IV collagenase; assay: Non-competitive inhibition of recombinant human MMP2 (110 to 452 residues) using Mca-Pro-Leu-Gly-Leu-Dpa-Ala-Arg-NH2 expressed in yeast expression system as substrate by fluorescence based Michaelis-Menten analysis; settings: time 2-4 hrs
Target sequence in this assay (P08253 110-660 limits assumed): as the sequence (P08253 110-660 limits assumed) above

[26] = system: SN-56; assay: Neuroprotective activity against H2O2-induced lipid peroxidation in mouse SN-56 cells assessed as increase in MDA level at 100 uM incubated for 24 hrs by lipid peroxidation MDA assay kit method; type: functional, cell-based

IC50 [3] [µM]	IC50 [4] [µM]	IC50 [7] [µM]	IC50 [8] [µM]	Compound	Activity [2]	Activity [5] [%]	Activity [6]	further results
> 100	60	16.4	22	COc1ccc(Nc2cc(-c3ccccc3)cc3c2c(=O)[nH]c2ccccc23)cc1	Non-Toxic	100	Dose-dependent effect	Activity [1]: Active
62	84.5	41	37.5	Cc1ccc(-c2cc(Nc3ccccc3)c3c(=O)[nH]c4ccccc4c3c2)cc1	Non-Toxic			
47	32	73	28	Nc1ccc(-c2cc(Nc3ccccc3)c3c(=O)[nH]c4ccccc4c3c2)cc1	Non-Toxic	100	Dose-dependent effect	Activity [1]: Active
69	13	42	54	O=c1[nH]c2ccccc2c2cc(-c3ccccc3)cc(Nc3ccccc3)c12	Non-Toxic			
54	47	40	32	COc1ccc(-c2cc(Nc3ccccc3)c3c(=O)[nH]c4ccccc4c3c2)cc1	Non-Toxic		Dose-dependent effect	
> 100	98	99	99	O=c1[nH]c2ccccc2c2cc(-c3ccccc3)cc(Nc3ccc(F)cc3)c12	Non-Toxic		Dose-dependent effect	
84	73	40	88	CN(C)c1ccc(Nc2cc(-c3ccccc3)cc3c2c(=O)[nH]c2ccccc23)cc1	Non-Toxic			

Further lines, the molecule ahead of its results:

Compound	IC50 [3] [µM]	IC50 [4] [µM]	IC50 [7] [µM]	IC50 [8] [µM]	Activity [2]	Activity [5] [%]	Activity [6]	further results
CCCCNc1cc(-c2cccs2)cc2c1c(=O)[nH]c1ccccc12	> 100	38		> 100	Non-Toxic		Dose-dependent effect	inhibition [9]: 54%
O=c1[nH]c2ccccc2c2cc(-c3ccco3)cc(Nc3ccccc3)c12	> 100	25.4	41.7	> 100	Non-Toxic		Dose-dependent effect	
O=c1[nH]c2ccccc2c2cc(-c3cccs3)cc(Nc3ccccc3)c12	18	6.1	15.6	16.1	Non-Toxic	100	Dose-dependent effect	Activity [1]: Active
COc1ccc(Nc2cc(-c3ccccc3)cc3c2c(=O)[nH]c2c(OC)c(OC)ccc23)cc1	68	42	37	20.5	Non-Toxic			
Cn1c(=O)c2c(Nc3ccccc3)cc(-c3ccccc3)cc2c2ccccc21	> 100	> 100	> 100	> 100	Non-Toxic			
Nc1cc(-c2cccs2)cc2c1c(=O)[nH]c1ccccc12	> 100	> 100	> 100	> 100	Non-Toxic	100	Dose-dependent effect	Activity [1]: Active
COc1ccc(Nc2cc(-c3cccs3)cc3c2c(=O)[nH]c2ccccc23)cc1	7	6.05	5.4	5	Non-Toxic	100	Dose-dependent effect	inhibition [10]: Active; Activity [11]: Active; Activity [12]: Active; Activity [13]: Active; Activity [14]: Active; inhibition [15]: Active; Activity [16]: Active; Activity [1]: Active; Activity [17]: Active; Activity [18]: Active; Activity [19]: Active; Activity [20]: Active; Activity [21]: Active; inhibition [22]: Active; inhibition [23]: Active; Activity [24]: Active; Activity [25]: Active
COc1ccc(Nc2cc(-c3ccco3)cc3c2c(=O)[nH]c2ccccc23)cc1	23	9	15	9	Non-Toxic		Dose-dependent effect	
Cc1c(C)c2c(c(C)c1O)CCC(C)(C(=O)O)O2 (configuration not stated)								Activity [26]: Active
Nc1cc(-c2ccccc2)cc2c1c(=O)[nH]c1ccccc12	> 100	> 100	> 100	> 100	Non-Toxic			
O=c1[nH]c2ccccc2c2cc(-c3ccco3)cc(Nc3ccc(F)cc3)c12	> 100	45.4	> 100	> 100	Non-Toxic			
CCCCNc1cc(-c2ccccc2)cc2c1c(=O)[nH]c1ccccc12	86	56	60	99.5	Non-Toxic	100	Dose-dependent effect	
O=c1[nH]c2ccccc2c2cc(-c3cccs3)cc(Nc3ccc(F)cc3)c12	26.5	6.8	15.8	20.1	Non-Toxic	100	Dose-dependent effect	Activity [1]: Active
Cc1cc(C)cc(Nc2cc(-c3ccco3)cc3c2c(=O)[nH]c2ccccc23)c1	60	21.6	46	86	Non-Toxic			
